In PubChem BioAssay (NCI) one finds TGI data, which are given here for seven compounds.

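Step 1: Grow cells in 96-well plates. Step 2: Expose to compound for 48 hours at 5 concentrations. Step 3: Interpolate endpoints linearly; if unreached, use highest concentration. TGI: total growth inhibition.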

Among the test systems are ACHN renal; BT-549 breast; CAKI-1 renal; CCRF-CEM leukemia; COLO 205 colon; EKVX NSCLC; HCT-15 colon; HOP-92 NSCLC; HS 578T breast; K-562 leukemia; MDA-MB-435; NCI-H226 lung; NCI-H460 lung; NCI/ADR-RES ovarian; RXF 393 renal; SF-268 CNS; SK-MEL-28 melanoma; SNB-19 CNS; SW-620 colon; TK-10 renal.
What all share (experiment): NCI anticancer screen, dose series, 48 h

On to `COC1=CC(=O)C2=C(C1=O)[C@H]1CC[C@]3(C)C(=O)CC[C@H]3[C@@H]1CC2`, for which the TGI with ACHN renal was 79.3 µM; in the experiment on BT-549 breast it was 71.2 µM; in the experiment with CAKI-1 renal, 77 µM; in the experiment with CCRF-CEM leukemia, 26.9 µM; with COLO 205 colon it was more than 100 µM; in the experiment on EKVX NSCLC, 30.4 µM. Also, the TGI in the experiment with HCT-15 colon was more than 100 µM; in the experiment with HOP-92 NSCLC it was 35.8 µM; in the experiment with HS 578T breast, 70.5 µM; with K-562 leukemia it was more than 100 µM; with MDA-MB-435, 45.6 µM; with NCI-H226 lung it was 49.7 µM. For the same compound, the TGI with NCI-H460 lung is more than 100 µM; in the experiment on NCI/ADR-RES ovarian it was more than 100 µM; in the experiment on RXF 393 renal, 67.8 µM; in the experiment with SF-268 CNS it was 46.3 µM; in the experiment with SK-MEL-28 melanoma it was more than 100 µM; in the experiment on SNB-19 CNS, more than 100 µM. In addition, the TGI is 67.7 µM in the experiment with SW-620 colon and more than 100 µM in the experiment on TK-10 renal.
Regarding `O=C(CNc1ccc([N+](=O)[O-])cc1)Nn1c(-c2ccccc2)nc2ccccc2c1=O`, the TGI was 14.6 µM in the experiment with ACHN renal; 4.25 µM with BT-549 breast; 5.15 µM in the experiment on CAKI-1 renal; more than 21.6 µM with CCRF-CEM leukemia; 5.31 µM with COLO 205 colon; 28.6 µM in the experiment on EKVX NSCLC. For the same compound, the TGI is 7.64 µM in the experiment on HCT-15 colon; 6.66 µM in the experiment with HOP-92 NSCLC; 8.22 µM in the experiment on HS 578T breast; 5.52 µM in the experiment on K-562 leukemia; 14.6 µM with MDA-MB-435; 25.2 µM in the experiment on NCI-H226 lung. Further, the TGI in the experiment with NCI-H460 lung turned out to be 14.3 µM; in the experiment with NCI/ADR-RES ovarian, 7.65 µM; with RXF 393 renal, 8.84 µM; in the experiment with SF-268 CNS it was 16.4 µM; with SK-MEL-28 melanoma, 10.8 µM; in the experiment with SNB-19 CNS, 23.1 µM. In addition, the figures for the TGI with SW-620 colon and in the experiment with TK-10 renal were 5.02 µM and 17 µM, respectively.
Consider `COC(=O)C(Cc1c(-c2[nH]c3ccccc3c2CC(NC(C)=O)C(=O)OC)[nH]c2ccccc12)NC(C)=O` (stereo not given), for which the TGI with ACHN renal, in the experiment with BT-549 breast, in the experiment on CAKI-1 renal, with CCRF-CEM leukemia, with COLO 205 colon and in the experiment on EKVX NSCLC was more than 100 µM in each case. Also, the TGI in the experiment on HCT-15 colon, in the experiment on HOP-92 NSCLC, in the experiment with HS 578T breast, with K-562 leukemia, with MDA-MB-435 and with NCI-H226 lung was more than 100 µM each time. Also, the TGI in the experiment on NCI-H460 lung, in the experiment on NCI/ADR-RES ovarian, in the experiment with RXF 393 renal, with SF-268 CNS, with SK-MEL-28 melanoma and in the experiment with SNB-19 CNS was more than 100 µM each time. Also, the TGI in the experiment with SW-620 colon and in the experiment on TK-10 renal was more than 100 µM in each case.
As for `CC(=O)n1nc(-c2[nH]c(C)c(-c3nn(C(C)=O)c(=S)o3)c2C)oc1=S`, the TGI with ACHN renal was more than 100 µM; in the experiment with BT-549 breast it was more than 100 µM; with CAKI-1 renal, more than 100 µM; in the experiment on CCRF-CEM leukemia, more than 71.4 µM; in the experiment with COLO 205 colon, more than 100 µM; in the experiment on EKVX NSCLC it was more than 100 µM. The TGI with HCT-15 colon, in the experiment on HOP-92 NSCLC, in the experiment with HS 578T breast, in the experiment on K-562 leukemia, with MDA-MB-435 and with NCI-H226 lung was more than 100 µM each time. The TGI with NCI-H460 lung, in the experiment on NCI/ADR-RES ovarian, with RXF 393 renal, with SF-268 CNS, in the experiment on SK-MEL-28 melanoma and in the experiment with SNB-19 CNS was more than 100 µM throughout. In addition, the TGI in the experiment on SW-620 colon and in the experiment with TK-10 renal was more than 100 µM throughout.
On to `C=CC(=O)C#Cc1cnc(OC)nc1OC`, for which the TGI is 23.6 µM in the experiment on ACHN renal; 17.5 µM in the experiment on BT-549 breast; 21.1 µM with CAKI-1 renal; 2.97 µM with CCRF-CEM leukemia; 13.3 µM in the experiment on COLO 205 colon; more than 72 µM in the experiment on EKVX NSCLC. Further, the TGI with HCT-15 colon is 24.6 µM; in the experiment on HOP-92 NSCLC, more than 54.3 µM; in the experiment on HS 578T breast, more than 88.3 µM; in the experiment on K-562 leukemia, 3.84 µM; in the experiment with MDA-MB-435, 51.5 µM; with NCI-H226 lung, more than 92.7 µM. In addition, the TGI in the experiment with NCI-H460 lung was more than 59.9 µM; with NCI/ADR-RES ovarian, more than 86.7 µM; in the experiment on RXF 393 renal, more than 66.2 µM; with SF-268 CNS, more than 71.9 µM; with SK-MEL-28 melanoma, more than 47 µM; in the experiment on SNB-19 CNS, more than 58.9 µM. Also, the TGI in the experiment with SW-620 colon was 23.4 µM; in the experiment on TK-10 renal, 35.2 µM.
For the compound `C[C@H]1[C@H]2[C@H](C[C@@]3(C)C4=CC[C@H]5C(C)(C)[C@@H](OC6OCC(O)C(O)C6O)CC[C@@]56C[C@@]46CC[C@]23C)O[C@@]2(O)[C@@H]1OC(C)(C)[C@H]2O` (stereo not given in full), the TGI with ACHN renal is 6.35 µM; in the experiment on BT-549 breast, 8.78 µM; in the experiment on CAKI-1 renal, 5.57 µM; in the experiment on CCRF-CEM leukemia, 3.24 µM; with COLO 205 colon, 16.1 µM; in the experiment with EKVX NSCLC, 2.61 µM. For the same compound, the TGI came out at 3.43 µM in the experiment on HCT-15 colon; 3.28 µM with HOP-92 NSCLC; 3.7 µM in the experiment on HS 578T breast; 50 µM in the experiment on K-562 leukemia; 2.17 µM in the experiment on MDA-MB-435; 6.73 µM in the experiment on NCI-H226 lung. The TGI in the experiment with NCI-H460 lung was 7.83 µM; with NCI/ADR-RES ovarian, 9.94 µM; in the experiment with RXF 393 renal, 3.71 µM; in the experiment on SF-268 CNS it was 6.35 µM; with SK-MEL-28 melanoma it was 6.23 µM; in the experiment with SNB-19 CNS it was 8.4 µM. Also, the results for the TGI in the experiment with SW-620 colon and in the experiment with TK-10 renal were 3.74 µM and 3.95 µM, respectively.
For the compound `C=C1[C@@H](OC(C)=O)/C=C/C2C3C(=O)[C@@](C)(OC(C)=O)[C@H]([C@H](OC(C)=O)[C@]4(O)[C@@H](C)C(=O)O[C@H]4[C@H]1Cl)[C@@]23C` (stereo not given in full), the TGI with ACHN renal, in the experiment on BT-549 breast, in the experiment on CAKI-1 renal, in the experiment with CCRF-CEM leukemia, in the experiment on COLO 205 colon and with EKVX NSCLC was more than 100 µM in each case. The TGI in the experiment with HCT-15 colon, in the experiment on HOP-92 NSCLC, in the experiment with HS 578T breast, in the experiment with K-562 leukemia, in the experiment with MDA-MB-435 and with NCI-H226 lung was more than 100 µM in each case. In addition, the TGI with NCI-H460 lung, in the experiment on NCI/ADR-RES ovarian, in the experiment on RXF 393 renal, in the experiment on SF-268 CNS, in the experiment with SK-MEL-28 melanoma and with SNB-19 CNS was more than 100 µM each time. Moreover, the TGI in the experiment with SW-620 colon and in the experiment with TK-10 renal was more than 100 µM each time.
